The source of these data is patent publication US20220273659A1, “HETEROCYCLIC COMPOUNDS AS KINASE INHIBITORS” (NUVATION BIO INC., priority 2019, published 2022).

Assay [1] concerns MCF-7-PR (palbociclib-resistant MCF-7) cells. In words: Cell viability in palbociclib-resistant cell line. Type of assay: cell-based. The note with it: for IC50: Homo sapiens, MCF7, Table 5, palbociclib-resistant cell line maintained at about 850 nM palbociclib. On the procedure: Cells were treated with test compounds at 7 to 9 concentrations within a desired concentration range (e.g. 1.1 nM-10 μM) on day 2 by series diluting the test compound stock solution (10 mM in DMSO) with culture medium. Treatment duration was 24 Hr for BT-549 cells and 144 Hr (with a medium change at 72 Hr) for MCF-7 and DU4475 cells. Cell viability was assessed by Cell Titer-Glo® as recommended by Promega (Cat. No.: G7572), or by resazurin assay (Sigma Aldrich, Cat. No.: R7017) post treatment.
Cell viability data were plotted using GraphPad Prism (GraphPad Software, Inc., San Diego, Calif.). In addition, a nonlinear regression model with a sigmoidal dose response and variable slope within GraphPad Prism was used to calculate the IC50 value of individual test compounds.
The effects of test compounds in a palbociclib-resistant cell line and a parental, non-resistant cell line were compared. The palbociclib-resistant cell line (“MCF-7-PR”) was derived from the parental, non-resistant cell line (MCF-7 breast adenocarcinoma cells) by culture of cells over a period of three months in increasing concentrations of palbociclib, starting from about 350 nM and ending at about 850 nM, the final concentration at which they were then maintained in culture. The MCF-7-PR cells were checked using a cell viability assay to confirm that they had at least 5-fold resistance to palbociclib compared to parental MCF-7 cells, as measured by an increase in the cell viability IC50 values. Assessment of cell viability following treatment with palbociclib or test compounds was performed according to the method described above for MCF-7 cells.

The target of the next assay is T1, CDK4 (Homo sapiens, UniProt P11802).
T1 construct: purchased Invitrogen PR8064A
T1 sequence (P11802 whole entry): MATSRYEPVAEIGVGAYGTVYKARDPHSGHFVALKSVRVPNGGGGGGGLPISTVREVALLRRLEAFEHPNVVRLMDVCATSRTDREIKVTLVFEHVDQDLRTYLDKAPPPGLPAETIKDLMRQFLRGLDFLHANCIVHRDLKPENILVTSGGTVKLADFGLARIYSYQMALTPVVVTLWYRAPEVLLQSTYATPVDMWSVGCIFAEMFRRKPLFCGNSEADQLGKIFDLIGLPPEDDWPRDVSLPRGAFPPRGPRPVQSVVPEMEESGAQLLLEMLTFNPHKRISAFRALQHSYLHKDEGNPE
T1 sequence (P24385 whole entry partner): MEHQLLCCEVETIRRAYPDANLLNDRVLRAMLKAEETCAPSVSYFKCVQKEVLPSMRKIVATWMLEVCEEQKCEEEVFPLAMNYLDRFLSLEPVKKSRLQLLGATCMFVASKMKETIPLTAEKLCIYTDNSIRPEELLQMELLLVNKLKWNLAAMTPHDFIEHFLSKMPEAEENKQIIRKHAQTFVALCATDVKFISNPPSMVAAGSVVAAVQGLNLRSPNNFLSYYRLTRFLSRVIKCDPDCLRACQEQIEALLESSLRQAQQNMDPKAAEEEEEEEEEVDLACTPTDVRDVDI
Description: In vitro kinase inhibition IC50, luminescence (ADP Glo), retinoblastoma substrate. To be noted: read-out: CDK4/D1 IC50. Type of assay: biochemical. The essentials: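 Inhibition of CDK4 was quantified by ADP Glo luminescence with retinoblastoma as substrate. Reactions held 5 nM kinase, 1 μM retinoblastoma and 25 μM ATP and ran 2H at room temperature. A Synergy Neo reader took signals 15 min and 45 min after detection reagent, and percent inhibition was fitted to a four-parameter logistic model in XLfit to obtain IC50.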
Background: In ADP-Glo the light output rises with the ADP produced.

The target in a further assay is T2, CDK6 (Homo sapiens, UniProt Q00534).
T2 construct: purchased Invitrogen PR8422B
T2 sequence (Q00534 whole entry): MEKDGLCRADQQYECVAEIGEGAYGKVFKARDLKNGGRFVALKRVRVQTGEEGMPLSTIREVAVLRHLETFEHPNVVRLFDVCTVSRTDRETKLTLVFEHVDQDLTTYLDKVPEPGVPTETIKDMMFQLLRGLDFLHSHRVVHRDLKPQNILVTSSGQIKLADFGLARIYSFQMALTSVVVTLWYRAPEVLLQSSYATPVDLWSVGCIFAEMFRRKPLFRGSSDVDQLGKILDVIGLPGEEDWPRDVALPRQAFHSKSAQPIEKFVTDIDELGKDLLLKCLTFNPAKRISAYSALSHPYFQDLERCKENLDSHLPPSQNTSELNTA
T2 sequence (P24385 whole entry partner): as the sequence (P24385 whole entry partner) above
The description is as above. The format is biochemical. To be noted: read-out: CDK6/D1 IC50. In a few lines:
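IC50 derived by four-parameter logistic fit of percent inhibition, read as ADP-Glo luminescence. Reactions: 5 nM CDK6, 1 μM retinoblastoma, 25 μM ATP, test compound 0.1–200 nM final, 2 h at room temperature.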

The target in a further assay is T3, FMS kinase (Homo sapiens, UniProt P07333).
T3 construct: purchased Invitrogen (Life Technologies)
T3 sequence (P07333 20-972): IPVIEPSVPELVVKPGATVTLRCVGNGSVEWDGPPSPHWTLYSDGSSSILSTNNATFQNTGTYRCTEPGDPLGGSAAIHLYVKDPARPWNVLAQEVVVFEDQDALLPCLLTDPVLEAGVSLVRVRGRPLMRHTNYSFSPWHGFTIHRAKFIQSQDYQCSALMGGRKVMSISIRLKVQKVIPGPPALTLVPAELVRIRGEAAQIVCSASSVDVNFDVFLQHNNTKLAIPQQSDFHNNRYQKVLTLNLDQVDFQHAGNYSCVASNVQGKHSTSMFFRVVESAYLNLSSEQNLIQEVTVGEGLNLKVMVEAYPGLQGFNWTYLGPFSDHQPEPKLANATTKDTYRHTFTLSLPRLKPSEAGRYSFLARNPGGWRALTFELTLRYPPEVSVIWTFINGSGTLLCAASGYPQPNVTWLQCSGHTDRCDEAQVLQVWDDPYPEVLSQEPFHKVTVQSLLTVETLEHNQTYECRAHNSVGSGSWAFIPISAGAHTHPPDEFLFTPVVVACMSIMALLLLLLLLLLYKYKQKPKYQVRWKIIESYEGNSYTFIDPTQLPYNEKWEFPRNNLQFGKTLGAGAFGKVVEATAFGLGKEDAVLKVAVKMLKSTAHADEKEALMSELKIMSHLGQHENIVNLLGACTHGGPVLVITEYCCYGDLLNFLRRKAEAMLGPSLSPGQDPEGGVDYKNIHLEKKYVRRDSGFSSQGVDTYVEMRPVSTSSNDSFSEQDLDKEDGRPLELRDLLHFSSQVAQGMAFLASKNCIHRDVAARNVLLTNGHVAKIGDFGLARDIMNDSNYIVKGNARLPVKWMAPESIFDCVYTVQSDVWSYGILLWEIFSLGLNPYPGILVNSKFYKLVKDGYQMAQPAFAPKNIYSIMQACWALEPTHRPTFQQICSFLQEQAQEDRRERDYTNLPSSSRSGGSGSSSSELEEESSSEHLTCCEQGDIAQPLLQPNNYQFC
Description: LanthaScreen Eu Kinase Binding Assay (ATP, fluorescent-PolyGT substrate). Type of assay: biochemical. In a few lines:
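TR-FRET read (ex 340, em 495 and 520 nm) after EDTA/Tb-labelled antibody stop; IC50 by four-parameter logistic fit of percent inhibition. Reaction: 1.25 nM FMS, 10 min compound preincubation (3-fold series), then 1 h at room temperature with 10 μM ATP and 200 nM fluorescent PolyGT.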
On the technique in general: Time-resolved FRET reads energy transfer from a long-lived donor to a nearby acceptor.

Another assay addresses T4, PI3Kδ kinase (Homo sapiens, UniProt O00329).
T4 construct: purchased Reaction Biology Corporation (assay service)
In words: PI3Kδ kinase assay (ADP-Glo, Reaction Biology). Type of assay: biochemical. In a few lines: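 Kinase in Tris-HCl 40 mM pH 7.5, MgCl2 20 mM, orthovanadate 3 mM, DTT 2 mM, 0.05% CHAPS, 1% DMSO, preincubated 10 min at room temperature with compound (about 0.5 nM–100 μM). ATP started a 30-min reaction at 30 °C. ADP-Glo luminescence converted to μM ADP via standard curve; IC50 from nonlinear regression.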

Assay [2] relates to MCF-7 breast adenocarcinoma cells. Description: Cancer cell proliferation assay, single agent (cell viability). The format is cell-based. The note with it: Homo sapiens. In a few lines:
(§1)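 Viability read by resazurin or CellTiter-Glo after 24 h treatment (BT-549) or 144 h with a 72 h medium change (MCF-7, DU4475). Compounds tested at 7–9 concentrations, e.g. 1.1 nM–10 μM, added the day after seeding; IC50 by nonlinear sigmoidal regression.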

Assay [3] relates to Rb Ser780 phosphorylation in MCF-7 cells. Description: Determination of pRb levels (Ser780 phosphorylation, ELISA). Type of assay: cell-based. The note with it: Homo sapiens, 24H treatment, percentage of vehicle control. On the procedure:
Hypo-phosphorylation of the retinoblastoma protein (Rb) by cyclin D:Cdk4/6 complexes results in active Rb, which is a clinically relevant biomarker associated with CDK4 or CDK6 inhibition. As a confirmatory measure of functional activity of CDK4/6, the Ser780 phosphorylation state of Rb was assessed. MCF-7 cells were plated at 2.5×10^5 to 3.0×10^6 cells/well in 6-well cell-culture plates and incubated at 37° C. for 24H in MEM medium supplemented with 10% FBS. Cells were treated for 24H with a medium containing test compound at various concentrations (e.g., 0.01, 0.1, […]) or with DMSO (≤1%) in duplicate. After incubation period, the media was removed, and cells were rinsed once with ice-cold PBS and lysed with 0.2 mL of Cell Lysis Buffer containing 1 mM PMSF and Protease Inhibitor. Protein concentration was estimated following Bradford method. The lysis and the Rb measurements were performed following the manufacturer's ELISA kit protocols and buffers (Cell Signaling Technology, Cat. No.: 13016C). Rb inhibition of test compounds was calculated as percentage of vehicle control. In some cases, a nonlinear regression model with a sigmoidal dose response and variable slope within GraphPad Prism was used to calculate the IC50 value of Rb inhibition for individual test compounds.

Another assay has as its target T5, CDK1 (cyclin B) (Homo sapiens, UniProt P06493).
T5 construct: purchased Invitrogen Life Technologies (assay service)
Description: Z'-LYTE kinase assay. The format is biochemical. On the procedure: The plates were shaken for 30 seconds, and incubated for 60 minutes at room temperature. […] The plates were read on fluorescence plate reader with Dual emission at 445 nm and 520 nm.
The following equations were used for Z′-LYTE™ Screening Assay Data Analysis.

Another assay deals with T6, CDK2 (cyclin A) (Homo sapiens, UniProt P24941).
T6 construct: purchased Invitrogen Life Technologies (assay service)
In words: Z'-LYTE kinase assay. The format is biochemical. In a few lines:
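FRET-based Z′-LYTE read-out using 1.22–10.3 ng CDK2/cyclin A with Ser/Thr 12 peptide (2 μM in the 2× mix) and ATP (31 μM as the 4× solution), in HEPES pH 7.5, MgCl2, EGTA and BRIJ-35, for 60 min at room temperature. After 1 h of development, the 445/520 nm emission was read, and percent inhibition was fitted to a four-parameter logistic curve for IC50.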

For assay [4], the system named is DU4475 breast carcinoma cells. In words: Cancer cell proliferation assay, single agent (cell viability). Type of assay: cell-based. To be noted: Homo sapiens, DU-4475; Table 4; Rb negative; treatment 144 Hr with medium change at 72 Hr; Cell Titer-Glo or resazurin. The essentials:
as §1
(In general: Cellular ATP, detected with luciferase, serves as a proxy for viable cell number.)

[5] abbreviates: MCF7, Table 4, Rb positive, treatment 144 Hr with medium change at 72 Hr, Cell Titer-Glo or resazurin.
The mark [6] stands for this setting: MCF7, Table 5, parental, non-resistant cell line compared with MCF-7-PR.

Like-named read-outs stand apart in the source and are kept apart here. Where only a bound is given, the exact number is not on record here.

T4 sequence (O00329 whole entry): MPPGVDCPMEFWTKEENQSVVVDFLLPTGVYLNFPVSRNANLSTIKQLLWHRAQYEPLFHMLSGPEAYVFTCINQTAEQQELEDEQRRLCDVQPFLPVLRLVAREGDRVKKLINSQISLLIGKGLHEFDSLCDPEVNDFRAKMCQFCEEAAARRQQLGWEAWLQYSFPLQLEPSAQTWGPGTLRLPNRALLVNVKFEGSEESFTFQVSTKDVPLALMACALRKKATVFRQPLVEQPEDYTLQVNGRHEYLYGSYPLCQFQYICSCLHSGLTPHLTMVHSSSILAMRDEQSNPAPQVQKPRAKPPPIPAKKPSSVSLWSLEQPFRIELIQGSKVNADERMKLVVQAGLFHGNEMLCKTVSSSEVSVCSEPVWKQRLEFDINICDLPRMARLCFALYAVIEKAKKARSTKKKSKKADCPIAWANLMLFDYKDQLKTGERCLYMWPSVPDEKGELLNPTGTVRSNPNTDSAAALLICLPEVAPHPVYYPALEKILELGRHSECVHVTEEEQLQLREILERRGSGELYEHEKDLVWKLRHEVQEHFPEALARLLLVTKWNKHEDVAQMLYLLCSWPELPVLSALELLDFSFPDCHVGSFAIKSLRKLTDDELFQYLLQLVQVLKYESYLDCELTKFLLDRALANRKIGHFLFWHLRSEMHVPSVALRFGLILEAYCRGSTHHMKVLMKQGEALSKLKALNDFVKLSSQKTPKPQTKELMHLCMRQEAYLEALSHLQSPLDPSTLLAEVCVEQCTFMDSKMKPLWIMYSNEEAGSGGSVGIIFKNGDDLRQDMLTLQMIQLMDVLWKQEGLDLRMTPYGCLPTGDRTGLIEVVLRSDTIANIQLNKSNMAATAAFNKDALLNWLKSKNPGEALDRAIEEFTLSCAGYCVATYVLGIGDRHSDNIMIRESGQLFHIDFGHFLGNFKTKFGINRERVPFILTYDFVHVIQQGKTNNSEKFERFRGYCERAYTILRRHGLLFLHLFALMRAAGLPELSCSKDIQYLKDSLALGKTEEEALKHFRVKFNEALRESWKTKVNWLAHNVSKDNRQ
T4 sequence (P27986 whole entry partner): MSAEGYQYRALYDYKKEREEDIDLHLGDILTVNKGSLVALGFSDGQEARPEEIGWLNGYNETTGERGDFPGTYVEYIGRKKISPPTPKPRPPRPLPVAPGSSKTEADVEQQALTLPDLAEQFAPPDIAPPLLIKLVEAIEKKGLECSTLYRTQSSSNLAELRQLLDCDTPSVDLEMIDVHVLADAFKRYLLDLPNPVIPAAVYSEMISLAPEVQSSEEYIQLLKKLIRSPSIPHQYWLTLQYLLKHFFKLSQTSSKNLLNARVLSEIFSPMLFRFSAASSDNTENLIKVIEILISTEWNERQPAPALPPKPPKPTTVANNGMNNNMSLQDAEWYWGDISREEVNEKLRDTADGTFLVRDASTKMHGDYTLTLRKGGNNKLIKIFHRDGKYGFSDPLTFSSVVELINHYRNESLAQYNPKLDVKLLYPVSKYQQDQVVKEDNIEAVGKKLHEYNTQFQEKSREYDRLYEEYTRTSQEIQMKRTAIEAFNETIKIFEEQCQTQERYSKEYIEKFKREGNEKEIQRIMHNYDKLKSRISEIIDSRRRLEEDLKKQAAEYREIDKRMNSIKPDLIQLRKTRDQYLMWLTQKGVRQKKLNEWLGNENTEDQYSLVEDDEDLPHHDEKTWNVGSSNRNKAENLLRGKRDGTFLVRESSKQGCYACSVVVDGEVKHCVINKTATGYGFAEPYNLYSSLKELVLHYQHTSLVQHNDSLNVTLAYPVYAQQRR
T5 sequence (P06493 whole entry): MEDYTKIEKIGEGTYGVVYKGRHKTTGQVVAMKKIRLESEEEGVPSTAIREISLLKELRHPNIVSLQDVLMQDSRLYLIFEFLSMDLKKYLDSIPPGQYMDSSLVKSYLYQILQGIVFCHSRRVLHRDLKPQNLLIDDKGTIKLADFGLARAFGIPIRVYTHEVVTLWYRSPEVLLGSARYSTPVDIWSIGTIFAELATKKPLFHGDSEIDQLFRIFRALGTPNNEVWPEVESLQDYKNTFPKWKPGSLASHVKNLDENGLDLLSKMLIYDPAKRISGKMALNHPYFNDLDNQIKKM
T5 sequence (P14635 whole entry partner): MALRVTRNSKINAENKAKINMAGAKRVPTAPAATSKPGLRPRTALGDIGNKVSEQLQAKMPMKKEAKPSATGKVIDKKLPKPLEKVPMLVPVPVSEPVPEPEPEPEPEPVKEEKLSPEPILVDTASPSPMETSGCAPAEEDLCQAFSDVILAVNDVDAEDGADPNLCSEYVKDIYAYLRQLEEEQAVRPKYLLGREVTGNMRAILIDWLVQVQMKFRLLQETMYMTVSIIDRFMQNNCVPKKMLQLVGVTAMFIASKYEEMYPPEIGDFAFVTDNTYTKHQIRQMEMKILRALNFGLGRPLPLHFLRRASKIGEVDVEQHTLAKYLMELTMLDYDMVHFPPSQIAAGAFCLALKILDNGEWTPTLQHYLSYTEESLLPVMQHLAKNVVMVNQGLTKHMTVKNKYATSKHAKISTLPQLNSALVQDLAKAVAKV

On to `CC(=O)c1c(C)c2cnc(Nc3ccc(N4CCNCC4)cn3)nc2n(C2CCCC2)c1=O` [palbociclib, reference compound], for which, in assay [1] (MCF-7-PR versus parental MCF-7), the “resistance to palbociclib compared to parental MCF-7 cells (increase in cell viability IC50)” value is “at least 5 fold”.
One may read the inhibition as the drop in the measured response relative to a control, in per cent. Consider `N#Cc1cc2cnc(Nc3ccc(N4CCNCC4)cc3)nc2n(C2CCCc3ccccc32)c1=O` (centres unmarked) [Compound No. 39, 7-oxo-2-((4-(piperazin-1-yl)phenyl)amino)-8-(1,2,3,4-tetrahydronaphthalen-1-yl)-7,8-dihydropyrido[2,3-d]pyrimidine-6-carbonitrile], for which the IC50 on CDK4 was 0.002 µM; on CDK6, 0.0015 µM; at FMS kinase it was 0.007 µM; on PI3Kδ kinase, 0.906 µM; in assay [2] (setting [5]), 2.27 µM. For the same molecule, the inhibition at 0.01 µM in assay [3] (MCF7, 0.01 μM) was -25%. The inhibition at 0.1 µM in assay [3] (MCF7, 0.1 μM) turned out to be 40%. In assay [3] (MCF7, 1 μM), the inhibition at 1 µM is 52%.
As for `N#Cc1cc2cnc(Nc3ccc(N4CCNCC4)c(C(F)(F)F)c3)nc2n(C2CCCC2)c1=O` [Compound No. 33, 8-cyclopentyl-7-oxo-2-((4-(piperazin-1-yl)-3-(trifluoromethyl)phenyl)amino)-7,8-dihydropyrido[2,3-d]pyrimidine-6-carbonitrile], the IC50 on CDK4 was > 0.2 µM; on CDK6, > 0.2 µM; at FMS kinase, 0.0042 µM; at PI3Kδ kinase, 1.66 µM; in assay [2] (setting [5]) it was 0.155 µM; in assay [2] (setting [6]) it was 0.205 µM. In assay [1], this molecule yielded an IC50 of 0.065 µM.
On to `CS(=O)(=O)N1CCC[C@H](Nc2ncc3cc(C#N)c(=O)n(C4CCCC4)c3n2)C1` [Compound No. 364, (S)-8-cyclopentyl-2-((1-(methylsulfonyl)piperidin-3-yl)amino)-7-oxo-7,8-dihydropyrido[2,3-d]pyrimidine-6-carbonitrile], for which the IC50 on CDK4 was > 0.2 µM; on CDK6 it was > 0.2 µM; on CDK1 (cyclin B) (read-out: CDK1/B IC50) it was > 5 µM; against CDK2 (cyclin A), > 5 µM; at FMS kinase, 0.064 µM; at PI3Kδ kinase, 0.825 µM. For the same molecule, the IC50 was found to be 5.67 µM in assay [4] and 3.33 µM in [2] (setting [5]).
As for `CS(=O)(=O)N1CCC[C@@H](Nc2ncc3cc(C#N)c(=O)n(C4CCCC4)c3n2)C1` [Compound No. 365, (R)-8-cyclopentyl-2-((1-(methylsulfonyl)piperidin-3-yl)amino)-7-oxo-7,8-dihydropyrido[2,3-d]pyrimidine-6-carbonitrile], the IC50 was 0.167 µM at CDK4; > 0.2 µM on CDK6; > 5 µM on CDK1 (cyclin B) (read-out: CDK1/B IC50); 1.24 µM at CDK2 (cyclin A); 0.311 µM on FMS kinase; 1.71 µM against PI3Kδ kinase. Also, the values for the IC50 in assay [4] and in [2] (setting [5]) were 5.63 µM and 1.26 µM, respectively.
Turning to `N#Cc1cc2cnc(NC3CCN(S(=O)(=O)CC(F)(F)F)CC3)nc2n(C2CCCC2)c1=O` [Compound No. 358, 8-cyclopentyl-7-oxo-2-((1-((2,2,2-trifluoroethyl)sulfonyl)piperidin-4-yl)amino)-7,8-dihydropyrido[2,3-d]pyrimidine-6-carbonitrile], the IC50 at CDK4 was 0.0044 µM; at CDK6, 0.0066 µM; against CDK1 (cyclin B), 1.38 µM; against CDK2 (cyclin A), 0.119 µM; on FMS kinase it was 1.13 µM; against PI3Kδ kinase, > 44 µM. The figures for the IC50 in assay [4] and in assay [2] (setting [5]) were 12.8 µM and 2.8 µM, respectively.
With `N#Cc1cc2cnc(Nc3ccc(N4CCNCC4)c(Cl)c3)nc2n(C2CCCC2)c1=O` [Compound No. 30, 2-((3-chloro-4-(piperazin-1-yl)phenyl)amino)-8-cyclopentyl-7-oxo-7,8-dihydropyrido[2,3-d]pyrimidine-6-carbonitrile], the IC50 came to 0.0045 µM at CDK4; 0.0095 µM at CDK6; 0.006 µM at FMS kinase; 0.11 µM in assay [2] (setting [5]); 0.115 µM in assay [2] (setting [6]); 0.085 µM in assay [1].
`CS(=O)(=O)N1CCC(Nc2ncc3cc(C#N)c(=O)n(C4CCCCC4)c3n2)CC1` [Compound No. 367, 8-cyclohexyl-2-((1-(methylsulfonyl)piperidin-4-yl)amino)-7-oxo-7,8-dihydropyrido [2,3-d] pyrimidine-6-carbonitrile]: the IC50 at CDK4 is 0.055 µM; at CDK6 it was 0.0074 µM; on CDK1 (cyclin B), 2.92 µM; against CDK2 (cyclin A), 0.308 µM; on FMS kinase, 0.102 µM; on PI3Kδ kinase, 0.539 µM. Besides, the IC50 was 5.16 µM in assay [4] and 0.64 µM in assay [2] (setting [5]).
`N#Cc1cc2cnc(Nc3ccc4c(c3)CCNC4)nc2n(C2COCC2O)c1=O` (centres unmarked) [Compound No. 101, 8-(4-hydroxytetrahydrofuran-3-yl)-7-oxo-2-((1,2,3,4-tetrahydroisoquinolin-6-yl)amino)-7,8-dihydropyrido[2,3-d]pyrimidine-6-carbonitrile]: the IC50 is > 0.2 µM at CDK4; > 0.2 µM at CDK6; > 5 µM on CDK1 (cyclin B) (read-out: CDK1/B IC50); 1.74 µM at CDK2 (cyclin A); 0.055 µM on FMS kinase; 7.77 µM against PI3Kδ kinase. The IC50 in assay [4] and in assay [2] (setting [5]) was > 30 µM throughout.
